Biological target: T1, human PAD4 (Homo sapiens, UniProt Q9UM07)
T1 construct: human PAD4 (NM_012387), A2P663, was PCR amplified; His-SUMO (N, cleaved yes); made in house; host or cells: E. coli BL21(DE3)
Test: In vitro PAD4 BAEE biochemical assay
Conditions: human PAD4, BAEE substrate; 5 nM PAD4, 2 mM calcium chloride, 3 mM BAEE; geometric mean of multiple experiments
Experimental: The PCR product was ligated into linearized pET-SUMO vector (Invitrogen, Carlsbad, CA), which is part of the Champion™ pET SUMO Protein Expression System. After sequence verification for the correct orientation, the pET-SUMO-hPAD4 expression plasmid was transformed into BL21(DE3) cells.
E. Coli BL21(DE3) cells were inoculated in LB medium with kanamycin at 37° C. until A600 nm reached about 0.5. Protein expression was induced by addition of 0.5 mM IPTG (final) and continued overnight at 16° C. at 220 rpm.
Cells were harvested by centrifugation at 5000 rpm for 10 minutes at 4° C. The pellet was resuspended in 300 ml lysis buffer (20 mM Tris-HCl, pH 8.0, 1 mM EDTA, 500 mM NaCl, 1 mM (tris(2-carboxyethyl)phosphine) (TCEP), 10% glycerol, and 1% Triton X100 and EDTA free protease inhibitor) and lysed by 3× passage through a microfluidizer (Microfluidics, Newton, MA) at 18,000 psi. The cell lysate was clarified by centrifugation at 30,000 rpm for 60 minutes at 4° C. […] Bound protein was eluted with a 0-100% linear gradient of 100 mL Ni-B buffer (Ni A buffer+0.5 M Imidazole).
The protein was then reloaded onto a Ni—HP column for a reverse purification step and recovered in flow through fraction. The protein with His-Sumo tag removed was then polished using a 16/60 Superdex-200 gel filtration column with gel filtration buffer (20 mM Tris pH 8.0, NaCl 400 mM and 1 mM TCEP). The fractions containing the protein were pulled and frozen at −80° C.
The enzymatic activity of human PAD4 was monitored in a biochemical assay in the presence or absence of compounds using the small peptidyl arginine mimic BAEE (Na-Benzoyl-L-arginine ethyl ester hydrochloride) as substrate. PAD4 activity led to deamination of BAEE and release of ammonia. Levels of ammonia were monitored by using an amine coupling reaction and were indicative of PAD4 enzymatic activity.
One hundred nanoliters of test compounds dissolved in DMSO at various concentrations were dispensed into a 384-well black OptiPlate using a Labcyte Echo instrument. Ten microliters of a solution of recombinant PAD4 and calcium chloride diluted in PAD4 assay buffer (50 mM MOPS [3-(N-morpholino) propanesulfonic acid], pH 7.6; 50 mM sodium chloride; 0.05% Tween-20; 2 mM dithiothreitol) was added to the compound-containing plate and was incubated for 30 minutes at 25° C. Ten microliters of a solution of BAEE (Sigma-Aldrich #B4500) diluted in PAD4 assay buffer was then added to start the reaction. Final concentrations were 5 nM PAD4, 2 mM calcium chloride, and 3 mM BAEE. The reaction mixture was incubated at 25° C. for 2 hours and was stopped with the addition of 10 microliters of a solution of 75 mM EDTA (Ethylenediaminetetraacetic acid) in PAD4 assay buffer. Thirty microliters of detection solution (5 mM o-phthalaldehyde, 50 mM MOPS [3-(N-morpholino) propanesulfonic acid], pH 7.6; 50 mM sodium chloride; 0.05% Tween-20; 5 mM dithiothreitol) was then added and the reaction was incubated for 1 hour at 25° C.

T1 sequence (Q9UM07 2-663): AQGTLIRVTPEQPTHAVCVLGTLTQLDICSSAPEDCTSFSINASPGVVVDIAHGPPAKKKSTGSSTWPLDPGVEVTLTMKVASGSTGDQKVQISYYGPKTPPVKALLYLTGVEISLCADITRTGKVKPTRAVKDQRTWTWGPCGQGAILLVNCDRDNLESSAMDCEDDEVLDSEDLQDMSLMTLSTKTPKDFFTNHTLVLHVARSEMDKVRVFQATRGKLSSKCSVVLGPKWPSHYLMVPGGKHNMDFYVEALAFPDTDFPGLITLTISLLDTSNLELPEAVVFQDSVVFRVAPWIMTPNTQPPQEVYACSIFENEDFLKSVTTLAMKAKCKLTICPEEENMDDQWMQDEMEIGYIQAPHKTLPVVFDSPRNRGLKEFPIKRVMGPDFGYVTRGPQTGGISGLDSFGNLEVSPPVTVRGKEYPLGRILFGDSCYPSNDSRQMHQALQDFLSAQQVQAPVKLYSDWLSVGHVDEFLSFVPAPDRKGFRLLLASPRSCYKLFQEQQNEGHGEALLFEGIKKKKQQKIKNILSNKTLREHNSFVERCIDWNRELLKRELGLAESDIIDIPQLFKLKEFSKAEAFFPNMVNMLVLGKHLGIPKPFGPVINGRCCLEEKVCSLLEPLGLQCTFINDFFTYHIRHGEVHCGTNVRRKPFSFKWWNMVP

Compound	IC50 [nM]
[2H]C([2H])([2H])OC(=O)N[C@H](C)c1ccc2cc(-c3nc4cc(C(=O)N5[C@H]6CC[C@@H]5[C@H](N)C6)cc(OC)n4c3C)n(CC3CC3)c2n1 [Example 164, trideuteriomethyl~{N}-[(1~{R})-1-[2-[7-[(1~{R},2~{R},4~{S})-2-amino-7-azabicyclo[2.2.1]heptane-7-carbonyl]-5-methoxy-3-methylimidazo[1,2-a]pyridin-2-yl]-1-(cyclopropylmethyl)pyrrolo [2,3-b]pyridin-6-yl]ethyl] carbamate]	79
COc1cc(C(=O)N2[C@H]3CC[C@@H]2[C@H](N)C3)cc2nc(-c3cc4ccc(OCC(=O)N(C)C)nc4n3CC3CC3)c(C)n12 [Example 624, 2-[2-[7-[(1~{R},2~{R}, 4~{S})-2-amino-7-azabicyclo[2.2.1]heptane-7-carbonyl]-5-methoxy-3-methylimidazo[1,2-a]pyridin-2-yl]-1-(cyclopropylmethyl)pyrrolo [2,3-b]pyridin-6-yl] oxy-~{N},~{N}-dimethylacetamide]	114
COc1cc(C(=O)N2[C@H]3CC[C@@H]2[C@H](N)C3)cc2nc(-c3cc4ccc(C(C)Cc5nnc(C)o5)nc4n3CC3CC3)c(C)n12 (stereo partly drawn) [Example 516, [(1~{R},2~{R},4~{S})-2-amino-7-azabicyclo [2.2.1]heptan-7-yl]-[2-[1-(cyclopropylmethyl)-6-[1-(5-methyl-1,3,4-oxadiazol-2-yl)propan-2-yl]pyrrolo[2,3-b]pyridin-2-yl]-5-methoxy-3-methylimidazo[1,2-a]pyridin-7-yl]methanone]	65.6
COc1cc(C(=O)N2[C@H]3CC[C@@H]2[C@H](N)C3)cc2nc(-c3cc4ccc([C@@H](C)NC(=O)C56CCC(F)(CC5)CC6)nc4n3CC3CC3)c(C)n12 [Example 63, ~{N}-[(1~{R})-1-[2-[7-[(1~{R},2~{R}, 4~{S})-2-amino-7-azabicyclo[2.2.1]heptane-7-carbonyl]-5-methoxy-3-methylimidazo [1,2-a]pyridin-2-yl]-1-(cyclopropylmethyl)pyrrolo[2,3-b]pyridin-6-yl]ethyl]-4-fluorobicyclo[2.2.2] octane-1-carboxamide]	84.9
COc1cc(C(=O)N2[C@H]3CC[C@@H]2[C@H](N)C3)cc2nc(-c3cc4ccc([C@@H](C)NC(=O)NCc5ccncc5)nc4n3CC3CC3)c(C)n12 [Example 223, 1-[(1~{R})-1-[2-[7-[(1~{R},2~{R},4~{S})-2-amino-7-azabicyclo[2.2.1]heptane-7-carbonyl]-5-methoxy-3-methylimidazo [1,2-a]pyridin-2-yl]-1-(cyclopropylmethyl)pyrrolo [2,3-b]pyridin-6-yl]ethyl]-3-(pyridin-4-ylmethyl)urea]	77.3
CCC(CC(=O)N1CCCC1)c1ccc2cc(-c3nc4cc(C(=O)N5[C@H]6CC[C@@H]5[C@H](N)C6)cc(OC)n4c3C)n(CC3CC3)c2n1 (stereo partly drawn) [Example 540, 3-[2-[7-[(1~{R},2~{R}, 4~{S})-2-amino-7-azabicyclo[2.2.1]heptane-7-carbonyl]-5-methoxy-3-methylimidazo[1,2-a]pyridin-2-yl]-1-(cyclopropylmethyl)pyrrolo[2,3-b]pyridin-6-yl]-1-pyrrolidin-1-ylpentan-1-one]	102
COc1cc(C(=O)N2CCC[C@@H](N)C2)cc2nc(-c3cc4ccc(CCC(=O)N(C)C)nc4n3CC3CC3)c(C)n12 [Example 532, 3-[2-[7-[(3~{R})-3-aminopiperidine-1-carbonyl]-5-methoxy-3-methylimidazo[1,2-a]pyridin-2-yl]-1-(cyclopropylmethyl)pyrrolo[2,3-b]pyridin-6-yl]-~{N},~{N}-dimethylpropanamide]	1480
COc1cc(C(=O)N2[C@H]3CC[C@@H]2[C@H](N)C3)cc2nc(-c3cc4ccc(C(C)CC(=O)NC(C)(C)C)nc4n3CC3CC3)c(C)n12 (stereo partly drawn) [Example 521, 3-[2-[7-[(1~{R},2~{R}, 4~{S})-2-amino-7-azabicyclo[2.2.1]heptane-7-carbonyl]-5-methoxy-3-methylimidazo[1,2-a]pyridin-2-yl]-1-(cyclopropylmethyl)pyrrolo [2,3-b]pyridin-6-yl]-~{N}-~{tert}-butylbutanamide]	122
Cc1c(-c2cc3ccc(N(C(F)F)S(C)(=O)=O)nc3n2CC2CC2)nc2cc(C(=O)N3CCC[C@@H](N)C3)cc(C3CC3)n12 [Example 428, ~{N}-[2-[7-[(3~{R})-3-aminopiperidine-1-carbonyl]-5-cyclopropyl-3-methylimidazo [1,2-a]pyridin-2-yl]-1-(cyclopropylmethyl)pyrrolo [2,3-b]pyridin-6-yl]-~{N}-(difluoromethyl) methanesulfonamide]	1020
COc1cc(C(=O)N2[C@H]3CC[C@@H]2[C@H](N)[C@H](O)C3)cc2nc(-c3cc4ccc([C@@H](C)NC(=O)C(C)(C)C)nc4n3CC3CC3)c(C)n12 [Example 60, ~{N}-[(1~{R})-1-[2-[7-[(1~{R},2~{S},3~{R}, 5~{S})-2-amino-3-hydroxy-8-azabicyclo[3.2.1]octane-8-carbonyl]-5-methoxy-3-methylimidazo [1,2-a]pyridin-2-yl]-1-(cyclopropylmethyl)pyrrolo[2,3-b]pyridin-6-yl]ethyl]-2,2-dimethylpropanamide]	226
COc1cc(C(=O)N2[C@H]3CC[C@@H]2[C@H](N)[C@H](O)C3)cc2nc(-c3cc4ccc(N(C(F)F)S(C)(=O)=O)nc4n3CC3CC3)c(C)n12 [Example 416, ~{N}-[2-[7-[(1~{R},2~{S},3~{R}, 5~{S})-2-amino-3-hydroxy-8-azabicyclo[3.2.1]octane-8-carbonyl]-5-methoxy-3-methylimidazo[1,2-a]pyridin-2-yl]-1-(cyclopropylmethyl)pyrrolo [2,3-b]pyridin-6-yl]-~{N}-(difluoromethyl) methanesulfonamide]	337
COc1cc(C(=O)N2CCC[C@@H](N)C2)cc2nc(-c3cc4ccc([C@@H](C)NC(=O)C(C)(C)C)nc4n3CC3CC3)c(C3CC3)n12 [Example 143, ~{N}-[(1~{R})-1-[2-[7-[(3~{R})-3-aminopiperidine-1-carbonyl]-3-cyclopropyl-5-methoxyimidazo [1,2-a]pyridin-2-yl]-1-(cyclopropylmethyl)pyrrolo [2,3-b]pyridin-6-yl]ethyl]-2,2-dimethylpropanamide]	139
COc1cc(C(=O)N2[C@H]3CC[C@@H]2[C@H](N)C3)cc2nc(-c3cc4ccc([C@@H](C)NC(=O)N5C[C@H]6OCC[C@H]65)nc4n3CC3CC3)c(C)n12 [Example 196, (1~{R},5~{R})-~{N}-[(1~{R})-1-[2-[7-[(1~{R},2~{R},4~{S})-2-amino-7-azabicyclo[2.2.1]heptane-7-carbonyl]-5-methoxy-3-methylimidazo [1,2-a]pyridin-2-yl]-1-(cyclopropylmethyl)pyrrolo [2,3-b]pyridin-6-yl]ethyl]-2-oxa-6-azabicyclo [3.2.0]heptane-6-carboxamide]	29.3
COc1cc(C(=O)N2[C@H]3CC[C@@H]2[C@H](N)C3)cc2nc(-c3cc4ccc(N(C5CCC5)S(C)(=O)=O)nc4n3CC3CC3)c(C)n12 [Example 477, ~{N}-[2-[7-[(1~{R}, 2~{R},4~{S})-2-amino-7-azabicyclo[2.2.1]heptane-7-carbonyl]-5-methoxy-3-methylimidazo[1,2-a]pyridin-2-yl]-1-(cyclopropylmethyl)pyrrolo [2,3-b]pyridin-6-yl]-~{N}-cyclobutylmethane-sulfonamide]	100
COc1cc(C(=O)N2CC[C@H]3CCNC[C@H]32)cc2nc(-c3cc4ccc(N(C(F)F)S(C)(=O)=O)nc4n3CC3CC3)c(C)n12 [Example 415, ~{N}-[2-[7-[(3~{a}~{R},7~{a}~{S})-2,3,3~{a},4,5,6,7,7~{a}-octahydropyrrolo[2,3-c]pyridine-1-carbonyl]-5-methoxy-3-methylimidazo[1,2-a]pyridin-2-yl]-1-(cyclopropylmethyl)pyrrolo [2,3-b]pyridin-6-yl]-~{N}-(difluoromethyl) methanesulfonamide]	27900
